Experimental data as given in US20190352276A1, “INHIBITORS OF BRUTON'S TYROSINE KINASE” (Joint Stock Company "Biocad", priority 2016, published 2019).

system: not listed separately; assay: Stability in human blood plasma; conditions: 10 μM in pooled human blood plasma, incubated 4 hours at 37° C.

| SMILES | Amount of substance in the sample, % (stability in human blood plasma) [%] |
| --- | --- |
| C=CC(=O)N1CCC[C@@H](n2nc(-c3ccc(Oc4cccnc4C(N)=O)cc3)c3cncc(Cl)c32)C1 [BCD-BTK-220, 3-(4-{7-chloro-1-[(3R)-1-(prop-2-enoyl)piperidin-3-yl]-1H-pyrazolo[4,3-c]pyridin-3-yl}phenoxy)pyridine-2-carboxamide] | 90.2 |
| C=CC(=O)N1CCC[C@@H](n2nc(-c3ccc(Oc4cccnc4C#N)cc3)c3cncc(F)c32)C1 [BCD-BTK-230, (R)-3-(4-(1-(1-acryloylpiperidin-3-yl)-7-fluoro-1H-pyrazolo[4,3-c]pyridin-3-yl)phenoxy)picolinonitrile] | 93.3 |
| C=CC(=O)N1CCC[C@@H](n2nc(-c3ccc(C(=O)Nc4ccccn4)cc3)c3c(N)ncc(C#N)c32)C1 [BCD-BTK-234, (R)-4-(1-(1-acryloylpiperidin-3-yl)-4-amino-7-cyano-1H-pyrazolo[4,3-c]pyridin-3-yl)-N-(pyridine-2-yl)benzamide] | 83.5 |
| C=CC(=O)N1CCC[C@@H](n2nc(-c3ccc(Oc4ccncc4)cc3)c3c(N)ncc(OC)c32)C1 [BCD-BTK-239, (R)-1-(1-acryloylpiperidin-3-yl)-4-amine-7-methoxy-3-(4-(pyridin-4-yloxy)phenyl)-1H-pyrazolo[4,3-c]pyridine] | 80.3 |
| C=CC(=O)N1CCC[C@@H](n2nc(-c3ccc(C(=O)Nc4ccccn4)cc3)c3c(N)ncc(OC)c32)C1 [BCD-BTK-240, (R)-4-(1-(1-acryloylpiperidin-3-yl)-4-amino-7-methoxy-1H-pyrazolo[4,3-c]pyridin-3-yl)-N-(pyridin-2-yl)benzamide] | 100.0 |
| C=CC(=O)N1CCC[C@@H](n2nc(-c3ccc(C(=O)Nc4ccccn4)cc3)c3c(N)nccc32)C1 [BCD-BTK-242, (R)-4-(1-(1-acryloylpiperidin-3-yl)-4-amino-1H-pyrazolo[4,3-c]pyridin-3-yl)-N-(pyridin-2-yl)benzamide] | 100.0 |

system: Caco-2 cells; assay: Permeability through the monolayer of Caco-2 cells; assay type: in vitro ADME; conditions: not given
Method in brief: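 Bidirectional transport measured over 7200 s with 10 μM compound, using an apical buffer at pH 6.5 and a basolateral Hanks/HEPES/glucose buffer at pH 7.4 containing 1% BSA. Monolayers were 21-day Caco-2 cultures verified with Lucifer Yellow. Chamber concentrations quantified chromatographically to derive Papp in both directions and their B-A/A-B efflux ratio.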

| SMILES | efflux (Papp B-A/Papp A-B) |
| --- | --- |
| C=CC(=O)N1CCC[C@@H](n2nc(-c3ccc(Oc4ccncc4C#N)cc3)c3cncc(Cl)c32)C1 [BCD-BTK-202, (R)-4-(4-(1-(1-acryloylpiperidin-3-yl)-7-chloro-1H-pyrazolo[4,3-c]pyridin-3-yl)phenoxy)nicotinonitrile] | 0.09 |
| C=CC(=O)N1CCC[C@@H](n2nc(-c3cnc(C(=O)Nc4cc(C(F)(F)CCC)ccn4)nc3)c3cncc(Cl)c32)C1 [BCD-BTK-292, (R)-5-(1-(1-acryloylpiperidin-3-yl)-7-chloro-1H-pyrazolo[4,3-c]pyridin-3-yl)-N-(4-(1,1-difluorobutyl)pyridin-2-yl)pyrimidine-2-carboxamide] | 0.006 |
